Test results published in paper PMC2031891, “The cyclic nucleotide gated cation channel AtCNGC10 traffics from the ER via Golgi vesicles to the plasma membrane of Arabidopsis root and leaf cells” (BMC Plant Biology, 2007).

Biological target: T1, AtCNGC10 (AtCNGC10-GFP) (Arabidopsis thaliana, UniProt Q9LNJ0)
T1 construct: gene CNGC10; full-length cDNA fused to EGFP (pNC10kozG) or to EGFP and FLAG (pTGC10F), transiently expressed in HEK293
T1 sequence (Q9LNJ0 1-711): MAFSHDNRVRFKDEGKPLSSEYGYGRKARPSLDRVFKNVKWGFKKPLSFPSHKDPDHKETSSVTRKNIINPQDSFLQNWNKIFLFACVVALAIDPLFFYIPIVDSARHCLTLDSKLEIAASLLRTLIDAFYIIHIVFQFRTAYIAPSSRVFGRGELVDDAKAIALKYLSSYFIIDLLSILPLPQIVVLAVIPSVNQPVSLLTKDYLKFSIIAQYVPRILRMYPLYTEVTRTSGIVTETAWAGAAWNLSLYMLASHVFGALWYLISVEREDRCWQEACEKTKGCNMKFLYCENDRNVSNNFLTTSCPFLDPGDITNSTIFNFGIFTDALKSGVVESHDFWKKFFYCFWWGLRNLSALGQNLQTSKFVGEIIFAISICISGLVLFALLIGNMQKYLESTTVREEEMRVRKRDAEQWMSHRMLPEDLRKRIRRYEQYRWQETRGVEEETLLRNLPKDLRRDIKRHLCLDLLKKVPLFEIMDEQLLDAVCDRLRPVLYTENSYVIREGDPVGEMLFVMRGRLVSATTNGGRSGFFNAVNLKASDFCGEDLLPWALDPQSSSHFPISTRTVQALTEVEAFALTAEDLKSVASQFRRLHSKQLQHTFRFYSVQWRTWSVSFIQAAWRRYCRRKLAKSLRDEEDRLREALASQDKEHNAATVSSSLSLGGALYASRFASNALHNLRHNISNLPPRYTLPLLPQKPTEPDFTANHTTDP
Assay: whole-cell patch clamp, HEK293
Format: cell-based
Conditions: 100 uM in bath; 145 mM K+ out / 145 mM N-methyl-D-glucamine in; pH 7.4 bath, 25 C; activator; control was non-transfected cells, no record without the nucleotide described

For `CCCC(=O)Nc1nc2c(ncn2[C@@H]2O[C@@H]3COP(=O)(O)O[C@H]3[C@H]2OC(=O)CCC)c(=O)[nH]1` [dibutyryl cGMP], the “whole-cell patch clamp, HEK293” value was “heterologously expressed AtCNGC10 conducted significant inward K^+ currents with the application of dibutyryl cGMP”.
